Where a SMILES comes first, the peptide text is derived from it. [ ]: non-standard residue; d: D form. NMeF = CN[C@@H](Cc1ccccc1)C(=O)O; dNMeF = CN[C@H](Cc1ccccc1)C(=O)O; NMeL = CN[C@@H](CC(C)C)C(=O)O; dNMeL = CN[C@H](CC(C)C)C(=O)O; NMeV = CN[C@H](C(=O)O)C(C)C; NMeA = CN[C@@H](C)C(=O)O; dNMeA = CN[C@H](C)C(=O)O
Conditions: PAMPA, PAMPA_Papp_Avg (apparent permeability)

Papp [×10⁻⁶ cm/s] | Compound
2.81 | CC[C@H](C)[C@@H]1NC(=O)[C@@H](CC(C)C)N(C)C(=O)[C@H](CC(C)C)N(C)C(=O)[C@@H](Cc2ccccc2)NC(=O)[C@@H](CC(C)C)N(C)C(=O)[C@H]2CCCN2C(=O)[C@H]2CCCN2C(=O)[C@@H]2CCCN2C(=O)[C@@H](C(C)C)NC(=O)[C@@H]2CCCN2C(=O)[C@H](C)NC1=O [Design D11.11, Ppp*lf*L*lIAPv] (cyclo(AP[dV]P[dP][dP][dNMeL][dF][NMeL][dNMeL]I))
1.43 | CC[C@H](C)[C@@H]1NC(=O)[C@@H]2CCCN2C(=O)[C@H]2CCCN2C(=O)[C@@H](CC(C)C)NC(=O)[C@@H](CC(C)C)N(C)C(=O)[C@@H](C(C)C)NC(=O)[C@H](C(C)C)NC(=O)[C@H]2CCCN2C(=O)[C@@H]2CCCN2C(=O)[C@H]([C@@H](C)CC)NC(=O)[C@H](C)N(C)C1=O [Design D11.13, PpVv*llpPI*AI] (cyclo(I[NMeA]IP[dP]V[dV][dNMeL][dL][dP]P))
0.206 | CC[C@H](C)[C@@H]1NC(=O)[C@@H]2CCCN2C(=O)[C@H]2CCCN2C(=O)[C@@H](Cc2ccccc2)NC(=O)[C@@H](CC(C)C)N(C)C(=O)[C@H](C(C)C)NC(=O)[C@@H](CC(C)C)NC(=O)[C@@H]2CCCN2C(=O)[C@H]2CCCN2C(=O)[C@@H](C)N(C)C(=O)[C@H](C(C)C)N(C)C1=O [Design D11.21, PI*V*apPlV*lfp] (cyclo(I[NMeV][dNMeA][dP]P[dL]V[dNMeL][dF][dP]P))
1.39 | CC[C@H](C)[C@@H]1NC(=O)[C@H](Cc2ccccc2)N(C)C(=O)[C@H]2CCCN2C(=O)[C@H]([C@@H](C)CC)NC(=O)[C@@H](C)N(C)C(=O)[C@@H](C)NC(=O)[C@@H]2CCCN2C(=O)[C@H]2CCCN2C(=O)[C@H](CC(C)C)NC(=O)[C@@H](CC(C)C)NC(=O)[C@H](CC(C)C)NC(=O)[C@H]2CCCN2C1=O [Design D12.6, p*FIpLILpPa*aI] (cyclo([dA][dNMeA]I[dP][NMeF]I[dP]L[dL]L[dP]P))
1.7 | CC[C@@H](C)[C@H]1NC(=O)[C@H](C)NC(=O)[C@@H](CC(C)C)N(C)C(=O)[C@H](CC(C)C)N(C)C(=O)[C@H](C(C)C)NC(=O)[C@@H]2CCCN2C(=O)[C@@H](CC(C)C)N(C)C(=O)[C@@H](C)N(C)C(=O)[C@@H](Cc2ccccc2)NC(=O)[C@@H]2CCCN2C(=O)[C@H]2CCCN2C1=O [Design D11.6, V*L*lAipPf*a*lP] (cyclo([dF][dNMeA][dNMeL]PV[NMeL][dNMeL]A[dI][dP]P))
0.756 | CC[C@@H](C)[C@H]1NC(=O)[C@H](C(C)C)NC(=O)[C@H]2CCCN2C(=O)[C@@H]2CCCN2C(=O)[C@H](CC(C)C)N(C)C(=O)[C@H](C)N(C)C(=O)[C@@H](CC(C)C)N(C)C(=O)[C@H](C)NC(=O)[C@@H](Cc2ccccc2)NC(=O)[C@@H]2CCCN2C1=O [Design D10.25, fA*l*A*LPpViP] (cyclo(A[dNMeL][NMeA][NMeL]P[dP]V[dI]P[dF]))
0.315 | CC[C@H](C)[C@@H]1NC(=O)[C@H](CC(C)C)N(C)C(=O)[C@H]2CCCN2C(=O)[C@H]2CCCN2C(=O)[C@H](Cc2ccccc2)NC(=O)[C@@H](CC(C)C)NC(=O)[C@H]2CCCN2C(=O)[C@@H]2CCCN2C1=O [Design D8.27, Fpp*LIPpl] (cyclo(F[dP][dP][NMeL]IP[dP][dL]))
2.69 | CC[C@@H](C)[C@H]1NC(=O)[C@H](CC(C)C)N(C)C(=O)[C@H]2CCCN2C(=O)[C@H](CC(C)C)NC(=O)[C@H](Cc2ccccc2)N(C)C(=O)[C@H](CC(C)C)N(C)C(=O)[C@@H](C(C)C)NC(=O)[C@H](C)NC(=O)[C@H]2CCCN2C(=O)[C@@H]2CCCN2C1=O [Design D10.17, *L*FLp*LiPpAv] (cyclo(A[dV][NMeL][NMeF]L[dP][NMeL][dI]P[dP]))
1.86 | CC(C)C[C@H]1NC(=O)[C@H](CC(C)C)N(C)C(=O)[C@@H](Cc2ccccc2)NC(=O)[C@@H](C)N(C)C(=O)[C@@H]2CCCN2C(=O)[C@H](C(C)C)NC(=O)[C@H](CC(C)C)N(C)C(=O)[C@@H](C)NC(=O)[C@@H]2CCCN2C(=O)[C@H]2CCCN2C1=O [Design D10.32, P*af*LlpPa*LV] (cyclo([dA][NMeL]VP[dNMeA][dF][NMeL][dL][dP]P))
0.808 | CC[C@@H](C)[C@H]1NC(=O)[C@@H]2CCCN2C(=O)[C@@H](Cc2ccccc2)NC(=O)[C@H](CC(C)C)N(C)C(=O)[C@H](C)NC(=O)[C@H]2CCCN2C(=O)[C@@H]2CCCN2C(=O)[C@H](CC(C)C)NC(=O)[C@H](CC(C)C)N(C)C(=O)[C@H](C)N(C)C1=O [Design D10.26, Pi*A*LLPpA*Lf] (cyclo(A[NMeL][dF]P[dI][NMeA][NMeL]LP[dP]))

More lines, now with the values behind:

Compound | Papp [×10⁻⁶ cm/s]
CC[C@@H](C)[C@H]1NC(=O)[C@H](CC(C)C)NC(=O)[C@@H](C)N(C)C(=O)[C@@H]2CCCN2C(=O)[C@H](C)NC(=O)[C@@H](CC(C)C)NC(=O)[C@H]2CCCN2C(=O)[C@H](C(C)C)NC(=O)[C@@H](CC(C)C)N(C)C1=O [Design D9.30, plAP*aLi*lV] (cyclo(AP[dNMeA]L[dI][dNMeL]V[dP][dL])) | 1.6
CC(C)C[C@@H]1C(=O)N[C@H](CC(C)C)C(=O)N2CCC[C@@H]2C(=O)N2CCC[C@@H]2C(=O)N(C)[C@@H](CC(C)C)C(=O)N[C@H](CC(C)C)C(=O)N2CCC[C@@H]2C(=O)N2CCC[C@H]2C(=O)N1C [Design D8.32, pp*LlpP*ll] (cyclo([dNMeL][dL][dP][dP][NMeL][dL][dP]P)) | 5.23
CC[C@H](C)[C@@H]1NC(=O)[C@@H](C)N(C)C(=O)[C@H]2CCCN2C(=O)[C@H]2CCCN2C(=O)[C@H](Cc2ccccc2)NC(=O)[C@@H](CC(C)C)NC(=O)[C@@H](CC(C)C)N(C)C(=O)[C@@H]2CCCN2C1=O [Design D8.17, P*llFpp*aI] (cyclo(F[dP][dP][dNMeA]IP[dNMeL][dL])) | 0.95
CC(C)C[C@H]1C(=O)N2CCC[C@@H]2C(=O)N[C@@H](Cc2ccccc2)C(=O)N2CCC[C@H]2C(=O)N[C@H](C(C)C)C(=O)N[C@H](Cc2ccccc2)C(=O)N1C (single isomer, unassigned) [Design D6.9.p1, vf*LpFP] | 5.29
CC(C)C[C@@H]1NC(=O)[C@H](Cc2ccccc2)NC(=O)[C@@H](CC(C)C)NC(=O)[C@H]2CCCN2C(=O)[C@H](C(C)C)NC(=O)[C@@H](CC(C)C)NC(=O)[C@H]2CCCN2C(=O)[C@@H]2CCCN2C1=O [Design D8.5, FLPplVpl] (cyclo(FLP[dP][dL]V[dP][dL])) | 6.31
CSCC[C@@H]1NC(=O)[C@H](CC(C)C)NC(=O)[C@@H]2CCCN2C(=O)[C@H]2CCCN2C(=O)[C@@H](C)NC(=O)[C@H]2CCCN2C(=O)[C@@H](CC(C)C)NC(=O)[C@@H](C)N(C)C(=O)[C@H](CC(C)C)N(C)C(=O)[C@@H](C)N(C)C1=O [Design D10.40, M*a*L*alpapPL] (cyclo(LM[dNMeA][NMeL][dNMeA][dL][dP][dA][dP]P)) | 0.34
CC[C@H](C)[C@@H]1NC(=O)[C@@H](C)NC(=O)[C@@H]2CCCN2C(=O)[C@H]2CCCN2C(=O)[C@@H]2CCCN2C(=O)[C@@H](C)NC(=O)[C@@H](Cc2ccccc2)NC(=O)[C@@H](CC(C)C)N(C)C(=O)[C@@H](CC(C)C)N(C)C1=O [Design D9.15, PpPaI*l*lfa] (cyclo([dA]I[dNMeL][dNMeL][dF][dA]P[dP]P)) | 0.341
CC(C)C[C@H]1NC(=O)[C@H]2CCCN2C(=O)[C@H](CC(C)C)N(C)C(=O)[C@@H](C)N(C)C(=O)[C@@H](Cc2ccccc2)NC(=O)[C@@H](C(C)C)NC(=O)[C@H]2CCCN2C(=O)[C@@H](CC(C)C)NC1=O [Design D8.19, f*a*Lpllpv] (cyclo([NMeL][dP][dL][dL][dP][dV][dF][dNMeA])) | 0.626
CC(C)C[C@@H]1C(=O)N2CCC[C@@H]2C(=O)N(C)[C@@H](C(C)C)C(=O)N[C@@H](C(C)C)C(=O)N2CCC[C@H]2C(=O)N2CCC[C@@H]2C(=O)N[C@@H](C)C(=O)N[C@H](C(C)C)C(=O)N(C)[C@@H](CC(C)C)C(=O)N[C@@H](C)C(=O)N1C [Design D10.6, PpAv*LA*lp*VV] (cyclo(A[dNMeL][dP][NMeV]VP[dP]A[dV][NMeL])) | 0.509
CC[C@H](C)[C@@H]1NC(=O)[C@@H](C)N(C)C(=O)[C@@H](C)N(C)C(=O)[C@@H]2CCCN2C(=O)[C@H](CC(C)C)NC(=O)[C@H](CC(C)C)NC(=O)[C@@H](CC(C)C)NC(=O)[C@@H]2CCCN2C(=O)[C@H]2CCCN2C1=O [Design D9.11, PlLLP*a*aIp] (cyclo([dL]LLP[dNMeA][dNMeA]I[dP]P)) | 0.316
CC[C@H](C)[C@@H]1NC(=O)[C@@H](CC(C)C)NC(=O)[C@H](CC(C)C)N(C)C(=O)[C@H](Cc2ccccc2)NC(=O)CN(C)C(=O)[C@@H]2CCCN2C(=O)[C@H](C(C)C)NC(=O)[C@H](Cc2ccccc2)N(C)C(=O)[C@H]2CCCN2C(=O)[C@H](CC(C)C)NC1=O (single isomer, unassigned) [Design D10.1.p1, lILp*FVP*GF*L] | 3.92
CC(C)C[C@@H]1C(=O)N(C)[C@@H](Cc2ccccc2)C(=O)N[C@@H](C(C)C)C(=O)N2CCC[C@H]2C(=O)NCC(=O)N2CCC[C@H]2C(=O)N(C)[C@H](CC(C)C)C(=O)N[C@@H](C(C)C)C(=O)N[C@H](CC(C)C)C(=O)N1C [SEQ ID NO 69, *lvl*l*FVPGP] (cyclo(GP[dNMeL]V[dL][dNMeL][NMeF]VP)) | 0.946
CC[C@H](C)[C@@H]1NC(=O)[C@H](Cc2ccccc2)NC(=O)[C@H]2CCCN2C(=O)[C@H]([C@@H](C)CC)NC(=O)[C@H](C(C)C)NC(=O)[C@@H](C)NC(=O)[C@H]2CCCN2C1=O (single isomer, unassigned) [Design D7.8.p2, VIpFIpa] | 4.92
CC[C@@H](C)[C@H]1NC(=O)[C@H]2CCCN2C(=O)[C@@H](C)NC(=O)[C@@H](CC(C)C)N(C)C(=O)[C@H]([C@@H](C)CC)NC(=O)[C@@H](C(C)C)NC(=O)[C@@H](CC(C)C)N(C)C(=O)[C@@H]2CCCN2C(=O)[C@@H]2CCCN2C1=O [Design D9.26, piPP*lvI*la] (cyclo(I[dNMeL][dA][dP][dI]PP[dNMeL][dV])) | 1.99
CSCC[C@@H]1NC(=O)[C@@H]2CCCN2C(=O)[C@@H](C(C)C)NC(=O)[C@@H](C)N(C)C(=O)[C@@H](CC(C)C)NC(=O)[C@@H](CC(C)C)NC(=O)[C@@H]2CCCN2C(=O)[C@H]2CCCN2C1=O [Design D8.29, MpPll*avP] (cyclo([dL][dL][dNMeA][dV]PM[dP]P)) | 0.236
CC(C)C[C@H]1NC(=O)[C@@H](C)NC(=O)[C@@H](C)NC(=O)[C@H]2CCCN2C(=O)[C@@H]2CCCN2C(=O)[C@H]2CCCN2C(=O)[C@@H](C)NC(=O)[C@@H](Cc2ccccc2)N(C)C(=O)[C@H]2CCCN2C(=O)[C@@H](CC(C)C)NC(=O)[C@@H](CC(C)C)NC1=O [Design D11.25, lp*fapPpaall] (cyclo([dP][dA][dA][dL][dL][dL][dP][dNMeF][dA][dP]P)) | 0.417
